We go through 24 molecules from ChEMBL document CHEMBL1201862, “PubChem BioAssay data set” (2004).

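Exposure lasted 48 hours, with cells grown in 96-well plates and compounds tested at five concentrations. Abbreviation: GI50, concentration required for 50% inhibition of growth.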 Calls of active or inactive are those of the source. Rule as the data show it: active = GI50 up to about 1.1 µM and inactive = higher. Some results are limits rather than exact numbers.

Some test systems named below: DLD-1; DMS-273; LXFL 529; M19-MEL; SNB-78; XF498; HOP-18; DMS-114; RXF 631.
What all share (experiment): NCI anticancer screen, dose series, 48 h

Consider `CC(C)(C)CC(C)(C)c1cc2c(O)c(c1)Cc1cc(C(C)(C)CC(C)(C)C)cc(c1O)Cc1cc(C(C)(C)CC(C)(C)C)cc(c1O)Cc1cc(C(C)(C)CC(C)(C)C)cc(c1O)Cc1cc(C(C)(C)CC(C)(C)C)cc(c1O)Cc1cc(C(C)(C)CC(C)(C)C)cc(c1O)Cc1cc(C(C)(C)CC(C)(C)C)cc(c1O)Cc1cc(C(C)(C)CC(C)(C)C)cc(c1O)C2`, for which the GI50 with DLD-1, with DMS-273, with LXFL 529, with M19-MEL, in the assay with SNB-78 and in the assay on XF498 was > 100 µM (inactive) throughout.
In the case of `O=C(OCc1ccccc1)N1N=NC2C1C1CC(OCc3ccccc3)(OCc3ccccc3)C2O1` (centres undefined), the GI50 with DLD-1, with DMS-273, in the assay with HOP-18, in the assay with LXFL 529, in the assay with M19-MEL and in the assay on SNB-78 was > 100 µM (inactive) throughout. Further, in the assay with XF498, the GI50 was > 100 µM (inactive).
As to `Cc1cc(N(CCC#N)CCC#N)ccc1/C=N\c1ccc(C(=O)NN2C(=O)/C(=C/c3ccc(N(CCC#N)CCC#N)cc3)N=C2c2cc([N+](=O)[O-])ccc2Cl)cc1`, the GI50 is 78.9 µM (inactive) in the assay on DLD-1; > 100 µM (inactive) in the assay with DMS-114; 47.6 µM (inactive) in the assay with DMS-273; 5.4 µM (inactive) with HOP-18; 71.6 µM (inactive) with LXFL 529; > 100 µM (inactive) with M19-MEL. The GI50 with RXF 631 was > 100 µM (inactive); with SNB-78, > 100 µM (inactive); with XF498 it was 61.9 µM (inactive).
For the molecule `CC(C)(C)c1cc2c(OP(c3ccccc3)c3ccccc3)c(c1)Cc1cc(C(C)(C)C)cc(c1OP(c1ccccc1)c1ccccc1)Cc1cc(C(C)(C)C)cc(c1OP(c1ccccc1)c1ccccc1)Cc1cc(C(C)(C)C)cc(c1OP(c1ccccc1)c1ccccc1)C2`, the GI50 with DLD-1, in the assay on DMS-114, in the assay with DMS-273, in the assay with HOP-18, in the assay with LXFL 529 and in the assay with M19-MEL was > 5 µM (inactive) in each case. Moreover, in the assay on SNB-78, the GI50 was > 5 µM (inactive).
In the case of `O=C1c2nc3n(c2C(=O)c2c1nc1n2CCC1)CCC3`, the GI50 was 5.09 µM (inactive) in the assay with DLD-1; 2.04 µM (inactive) with DMS-114; 3.3 µM (inactive) in the assay with DMS-273; 14 µM (inactive) with HOP-18; 9.93 µM (inactive) with LXFL 529; 0.184 µM (active) with M19-MEL. In addition, the GI50 is 13.8 µM (inactive) with SNB-78 and 6.38 µM (inactive) in the assay on XF498.
Regarding `COc1cc(Nc2nc3cc(C)ccc3nc2-c2ccccc2)cc(OC)c1OC`, the GI50 in the assay on DMS-114 is 6.9 µM (inactive); with DMS-273, 11.8 µM (inactive); with HOP-18 it was 24.3 µM (inactive); in the assay on LXFL 529 it was 39.7 µM (inactive); in the assay on M19-MEL, 24.2 µM (inactive); in the assay with XF498, 19.7 µM (inactive).
Turning to `CC1=CC(C)(c2c[nH]c3ccccc23)CC(C)(C)c2c1[nH]c1ccccc21` (centres undefined), the GI50 in the assay with DLD-1 is 13.7 µM (inactive); in the assay with DMS-114 it was 14.9 µM (inactive); in the assay on HOP-18, > 100 µM (inactive); in the assay with LXFL 529, 30.1 µM (inactive); with M19-MEL, 19.7 µM (inactive); in the assay on RXF 631, 14.5 µM (inactive). For the same molecule, the GI50 was 28.2 µM (inactive) in the assay on SNB-78 and 20.6 µM (inactive) in the assay on XF498.
In the case of `Cc1nc2c(n1C(C)(C)C)C(=O)c1ccccc1C2=O`, the GI50 in the assay on DLD-1 was 87.3 µM (inactive); with DMS-273, 52.8 µM (inactive); in the assay on LXFL 529, 67.9 µM (inactive); in the assay on M19-MEL it was 24.8 µM (inactive); in the assay on SNB-78, > 100 µM (inactive); with XF498, 44 µM (inactive).
Consider `CC(C)[C@H]1CO[C@]2(C)[C@@H]3CN(Cc4ccccc4)C[C@@H]3C(=O)N12`, for which the GI50 with DLD-1, with DMS-114, in the assay on DMS-273, in the assay on HOP-18, with LXFL 529 and in the assay with M19-MEL was > 100 µM (inactive) each time.
On to `O=C(CC1(O)C(=O)Nc2ccccc21)c1ccccc1O` (centres undefined), for which the GI50 with DLD-1, in the assay on DMS-114, in the assay on DMS-273, with LXFL 529, in the assay on M19-MEL and with RXF 631 was > 100 µM (inactive) throughout. Moreover, the GI50 in the assay on SNB-78 and in the assay with XF498 was > 100 µM (inactive) throughout.
Turning to `NC(=O)C12CC3CC(CC(Br)(C3)C1)C2`, the GI50 with DLD-1, in the assay on DMS-114, with DMS-273, with HOP-18, in the assay on LXFL 529 and in the assay with RXF 631 was > 100 µM (inactive) in each case. In addition, the GI50 with SNB-78 and in the assay with XF498 was > 100 µM (inactive) each time.
As to `CC12OOC(c3ccccc31)c1c2ccc2ccccc12` (centres undefined), the GI50 was 1.45 µM (inactive) in the assay with DLD-1; 0.885 µM (active) with DMS-114; 8.69 µM (inactive) in the assay on DMS-273; 1.86 µM (inactive) in the assay with HOP-18; 2.04 µM (inactive) with LXFL 529; 3.13 µM (inactive) in the assay on M19-MEL. Also, the GI50 in the assay with RXF 631 is 8.04 µM (inactive); in the assay on SNB-78 it was 4.11 µM (inactive).
With `CC1(Sc2ccccc2)CN(Cc2ccccc2)C1=O` (centres undefined), the GI50 in the assay with DLD-1 is > 100 µM (inactive); in the assay on DMS-114 it was 45.6 µM (inactive); with DMS-273, > 100 µM (inactive); in the assay with HOP-18 it was > 100 µM (inactive); with M19-MEL, > 100 µM (inactive); with RXF 631 it was > 100 µM (inactive). The GI50 with SNB-78 is > 100 µM (inactive); in the assay with XF498, 39.5 µM (inactive).
On to `C[C@@H](O)CCC(=O)c1ccoc1`, for which the GI50 in the assay with DLD-1, with DMS-114, in the assay on DMS-273, in the assay on HOP-18, in the assay on LXFL 529 and in the assay with M19-MEL was > 100 µM (inactive) in each case. For the same molecule, in the assay with SNB-78, the GI50 is > 100 µM (inactive).
Consider `O=S(=O)(N/N=C/c1cccc(Cl)c1Cl)c1ccccc1`, for which the GI50 with DLD-1 is 45.4 µM (inactive); in the assay with DMS-114, 27.7 µM (inactive); with DMS-273, 71.4 µM (inactive); in the assay on HOP-18, 87.3 µM (inactive); in the assay with LXFL 529 it was 70.6 µM (inactive); in the assay on M19-MEL, 93.8 µM (inactive). Moreover, the results for the GI50 in the assay with SNB-78 and in the assay with XF498 were > 100 µM (inactive) and 54.7 µM (inactive), respectively.
Regarding `COc1ccc(C)cc1-c1cc(Sc2ccccc2)c(-c2cc(C)ccc2OC)o1`, the GI50 with DLD-1, in the assay on DMS-114, in the assay with DMS-273, with HOP-18, with LXFL 529 and in the assay on M19-MEL was > 31.6 µM (inactive) each time. Also, the GI50 in the assay on RXF 631 was > 31.6 µM (inactive); with SNB-78, > 31.6 µM (inactive); in the assay with XF498, > 100 µM (inactive).
Take `O/N=C1/C(=C/c2ccccc2)CCCC1C(NO)c1ccccc1` (centres undefined): the GI50 in the assay on DMS-114 was 30.7 µM (inactive); with DMS-273, > 100 µM (inactive); with HOP-18 it was > 100 µM (inactive); in the assay on LXFL 529, 49.1 µM (inactive); in the assay on M19-MEL, 68.4 µM (inactive); in the assay on RXF 631, > 100 µM (inactive). Also, the GI50 with SNB-78 is 50.6 µM (inactive); with XF498 it was 28.1 µM (inactive).
Take `COC(=O)n1c(C[P+](c2ccccc2)(c2ccccc2)c2ccccc2)cc2ccccc21`: the GI50 was 1.06 µM (active) in the assay with DLD-1; 1.09 µM (active) in the assay on DMS-114; 0.697 µM (active) with DMS-273; 0.372 µM (active) with LXFL 529; 0.452 µM (active) in the assay on M19-MEL; 3.37 µM (inactive) with SNB-78. For the same molecule, in the assay on XF498, the GI50 is 0.746 µM (active).
With `CCOC(=O)C(N)CSC(=O)NC` (centres undefined), the GI50 in the assay with DLD-1 is 130 µM (inactive); in the assay with DMS-114 it was 51.3 µM (inactive); in the assay on DMS-273, 83.6 µM (inactive); with HOP-18 it was 357 µM (inactive); in the assay with M19-MEL, 64.6 µM (inactive); with XF498 it was 104 µM (inactive).
On to `COC(=O)C12Oc3ccc(-c4ccc5c(c4O)C(=O)C4=CCC(C)C(O)C4(C(=O)OC)O5)c(O)c3C(=O)C1=CCC(C)C2O` (centres undefined), for which the GI50 in the assay with DLD-1 is 0.798 µM (active); with DMS-114, 1.3 µM (inactive); in the assay on DMS-273, 1.62 µM (inactive); in the assay on HOP-18, 2.26 µM (inactive); in the assay on LXFL 529, 1.19 µM (inactive); in the assay on M19-MEL it was 1.48 µM (inactive). The GI50 was 2.13 µM (inactive) in the assay on RXF 631 and 1.95 µM (inactive) in the assay with SNB-78.
Take `COc1ccc(/C=C(\NC(=O)c2ccccc2)c2nc3ccccc3[nH]2)cc1`: the GI50 was 33.6 µM (inactive) with DLD-1; 24.8 µM (inactive) in the assay with DMS-114; 29.5 µM (inactive) in the assay on DMS-273; 27.4 µM (inactive) with LXFL 529; 35.6 µM (inactive) in the assay on M19-MEL; 18.5 µM (inactive) in the assay with XF498.
Consider `COc1cc2cccc(/N=C/c3c(Br)ccc(OC)c3OC(C)C)c2cc1OC`, for which the GI50 with DLD-1 is 23.8 µM (inactive); with DMS-114, 25.6 µM (inactive); in the assay with LXFL 529 it was 26.8 µM (inactive); with M19-MEL, 30.1 µM (inactive); in the assay with SNB-78 it was 38.6 µM (inactive); with XF498, 56.9 µM (inactive).
In the case of `O=c1[nH]c(-c2ccc(-c3nc4cc([N+](=O)[O-])ccc4c(=O)[nH]3)cc2)nc2cc([N+](=O)[O-])ccc12`, the GI50 in the assay on DLD-1, in the assay with DMS-114, with DMS-273, with LXFL 529, with M19-MEL and in the assay with RXF 631 was > 100 µM (inactive) each time. Moreover, the GI50 in the assay on SNB-78 is > 100 µM (inactive).
On to `C[C@]12CC/C(=N\OC(=O)Nc3ccccc3)C=C1CC[C@@H]1C2CC[C@@]2(C)C1CC[C@@H]2OC(=O)Nc1ccccc1` (some centres undefined), for which the GI50 is 23.2 µM (inactive) in the assay on DMS-114; > 100 µM (inactive) with DMS-273; > 100 µM (inactive) with HOP-18; 15.5 µM (inactive) in the assay on LXFL 529; 66.4 µM (inactive) with M19-MEL; > 100 µM (inactive) in the assay with SNB-78. In the assay on XF498, the GI50 was 13.4 µM (inactive).
